{"source": "patent US9782472B2", "about": "“Therapeutic compositions and methods for treating HIV including identification and manipulation of particular domains associated with immunogenicity” (The Regents of The University of California, priority 2008, dated 2017)", "assay_type_in_all_cases": "cell-based, HIV-1", "key": {"108051_005 wtR": {"test_system": "108051_005 wtR", "description": "(§1) Construction of envelope gene libraries and pseudoviruses. Libraries of envelope glycoprotein were created from each subject by PCR amplification of full length envelope genes from cryopreserved plasma using the method described previously. The swarm of PCR products was cloned into a plasmid expression vector useful for the construction of pseudoviruses. The vector was specifically designed to permit the construction of pseudovirus libraries for use in a well-established and validated virus neutralization assay. However, instead of pooling all of the clones together and carrying out neutralization assays or drug sensitivity assays with an entire library of cloned genes from each infected individual as had been done previously, we plated out the plasmid library on agar plates and picked 24-48 clones from each individual for infectivity studies. The plasmid DNA was isolated from each clone and used to create a stock of pseudovirus particles that were then screened for infectivity, and chemokine receptor usage. After verifying infectivity and receptor usage, we then selected approximately ten CCR5-dependent pseudotype viruses with good infectivity for virus neutralization assays. The virus neutralization assays were carried out as described by Schweighardt et al.\n(§2) Virus neutralization assay. The automated virus neutralization assay described in this study has been described previously. The neutralization data reported represent IC50 values calculated from serum dilution curves. This assay employs multiple assay controls, including a positive pseudotype virus control panel and a negative pseudotype virus control panel. Assay acceptability criteria have been established to minimize interassay variability and assure comparability of data from different experiments. The positive virus control panel includes the pseudotypes from the neutralization sensitive isolate, NL43, and the less neutralization sensitive primary isolate JRcsf. The negative virus (specificity) control consists of pseudotype viruses prepared from the envelope of the amphitropic murine leukemia virus."}, "108051_006 wtS": {"test_system": "108051_006 wtS", "description": "as §1, §2"}, "108060 clone 022 wtR": {"test_system": "108060 clone 022 wtR", "settings": "108060_022 wtR; 50% inhibition in target cell infection", "description": "as §1, §2"}, "108060 clone 024 wtS": {"test_system": "108060 clone 024 wtS", "description": "as §1, §2"}, "108069_005 wtR": {"test_system": "108069_005 wtR", "description": "as §1, §2"}, "108069_011 wtS": {"test_system": "108069_011 wtS", "description": "as §1, §2"}, "108051_005 Q655R": {"test_system": "108051_005 Q655R", "settings": "108051_005 Q655R (numbering of 108060)", "description": "as §1\n(§3) Sequencing and mutagenesis. Plasmids containing cloned envelope glycoproteins were sequenced using fluorescently labeled dideoxynucleotides at either Monogram Biosciences or the University of California Sequencing Facility (Berkeley, Calif.) using capillary electrophoresis sequencing devices (Applied Biosystems, Foster City, Calif.). HIV envelope glycoprotein sequences were mutagenized by a mismatched primer method using the QuikChange Mutagenesis kit (Stratagene, San Diego). All mutations were confirmed by DNA sequencing. The numbering of amino acids is made with reference to the sequence of gp160 from clone 022 of from subject 108060. Position 655 corresponds to position 653 of the HXB2 reference strain of HIV-1.\nas §2"}, "108060_022 Q655R": {"test_system": "108060_022 Q655R", "description": "as §1, §3, §2"}, "108060_024 R655Q": {"test_system": "108060_024 R655Q", "description": "as §1, §3, §2"}, "108069_005 Q655R": {"test_system": "108069_005 Q655R", "description": "as §1, §3, §2"}}}
{"substance": "enfuvirtide", "values": [{"measurement": "IC50 of indicated MAb or fusion inhibitor", "setting": "108051_005 wtR", "value": 0.088, "unit": "µg/mL"}, {"measurement": "IC50 of indicated MAb or fusion inhibitor", "setting": "108051_006 wtS", "value": 0.008, "unit": "µg/mL"}, {"measurement": "IC50 of indicated MAb or fusion inhibitor", "setting": "108060 clone 022 wtR", "value": 0.068, "unit": "µg/mL"}, {"measurement": "IC50 of indicated MAb or fusion inhibitor", "setting": "108060 clone 024 wtS; 108060_024 wtS", "value": 0.019, "unit": "µg/mL"}, {"measurement": "Fold more sensitive to neutralization", "setting": "108060 clone 024 wtS; clone 024 compared with clone 022 of subject 108060", "value": 3.5, "unit": "fold"}, {"measurement": "IC50 of indicated MAb or fusion inhibitor", "setting": "108069_005 wtR", "value": 0.071, "unit": "µg/mL"}, {"measurement": "IC50 of indicated MAb or fusion inhibitor", "setting": "108069_011 wtS", "value": 0.145, "unit": "µg/mL"}, {"measurement": "IC50 of indicated MAb or fusion inhibitor", "setting": "108051_005 Q655R", "value": 0.036, "unit": "µg/mL"}, {"measurement": "IC50 of indicated MAb or fusion inhibitor", "setting": "108060_022 Q655R; 108060_022 Q655R", "value": 0.004, "unit": "µg/mL"}, {"measurement": "Fold increase in neutralization sensitivity", "setting": "108060_022 Q655R; 108060_022 Q655R compared with wild-type clone 022", "value": 17, "unit": "fold"}, {"measurement": "IC50 of indicated MAb or fusion inhibitor", "setting": "108060_024 R655Q", "value": 0.130, "unit": "µg/mL"}, {"measurement": "IC50 of indicated MAb or fusion inhibitor", "setting": "108069_005 Q655R; 108069_005 Q655R (numbering of 108060)", "value": 0.011, "unit": "µg/mL"}, {"measurement": "Fold increase in sensitivity", "setting": "108069_005 Q655R; Q to R at position corresponding to 655 in the 108069 virus, versus parental virus", "value": "more than 17 fold"}]}
